Test: gradient 5% acetonitrile 3 min, to 50% in 2 min, to 85% in 15 min, held 3 min, 100 µL/min
Settings: column: Zorbax Extend-C18 2.1 x 50 mm; eluents: water / acetonitrile, 0.1% formic acid
Procedure, shortened: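 The system's dead and dwell volumes were 40 μL and 900 μL, with a Zorbax Extend-C18 column (2.1 × 50 mm, 1.8 μm) run at 100 μL/min in water and acetonitrile containing 0.1% formic acid each. Pure standards were analyzed in mixtures of ~100 molecules by HPLC–quadrupole time-of-flight mass spectrometry in positive and negative ionization mode. Retention time was assigned from computationally picked, manually inspected adduct peaks.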

Structure (SMILES)	RP-LC retention time [s]
CCOC(=O)c1nc(N2CCN(c3ccccc3)CC2)c2ccccc2n1	893
Cc1ccccc1CC(=O)N1C[C@H](c2nc(-c3ccccc3)no2)[C@@H](C)C1	1070
Cc1ccc2c(=O)c(C(=O)N3CCCC3)cn(CC(=O)Nc3cc(F)ccc3F)c2n1	703
O=C(NC1CCCN(c2ccc(=O)[nH]n2)C1)c1cc2cc(Cl)ccc2[nH]1 (centres undefined)	743
Cn1nc(-c2nnc(-c3ccccc3Cl)o2)c2c1CCN(C(=O)NC1CCCCC1)C2	899
CN1CCCc2ccc(NC(=O)CC3CCCN(c4cn[nH]c(=O)c4)C3)cc21 (centres undefined)	638
Cc1cccc(Cn2c(=O)n(CCNC(=O)C3CCC3)c3ncccc32)c1	784
Cc1cc(C)cc(NS(=O)(=O)c2cc(-c3[nH]ncc3C(=O)N(C)C)oc2C)c1	718
Cc1cc(N2CCOCC2)nc(N2CCN(C(=O)c3ccc(C(C)(C)C)cc3)CC2)n1	723
Cc1ccc(-c2ccc(-n3nc(C)c(S(=O)(=O)N4CCN(C(C)C)CC4)c3C)nn2)cc1C	785
Cn1nc(-c2nnc(-c3ccc(F)cc3)o2)c2c1CCN(S(=O)(=O)c1ccc(Cl)s1)C2	1010
COC(=O)c1cnn2c(C)c(Cc3ccc(C)cc3)c(C)nc12	885
CCCCNc1cc(Cl)nc(N)n1	690
CC(C)NC(=O)c1ncn2c1C(=O)N(C1CC1)C(C)(C(=O)NCc1ccc(F)cc1)C2 (centres undefined)	673
Cc1ccc(C(=O)N2CCC3(CC2)N=C(c2ccc(Cl)cc2)NO3)s1	901
O=S(=O)(c1ccccc1C(F)(F)F)N1CCC2(CCN(c3cccnc3)C2)C1 (centres undefined)	694
Cc1cccc(Nc2nnc(CC(=O)Nc3cc(F)ccc3Cl)s2)c1	872
O=C1CCN(C(=O)C2CCN(C(=O)c3ccco3)CC2)CCCCCCN1	623
CC1(C(=O)NCc2cc(F)ccc2F)CCCCC(=O)N1 (centres undefined)	674
Cc1cc(N(C)C)n2nc(CN3CCCC(C)C3)nc2n1 (centres undefined)	536
Cc1ccc(F)c(-n2nnc(C(=O)O)c2-c2ccncc2)c1	654
Cc1cc(-c2csc(S(=O)(=O)N3CCN(CCOc4ccc(Cl)cc4)CC3)c2)on1	760

Structure (SMILES)	RP-LC retention time [s]
O=C(CC(=O)Nc1ccccc1Cl)Nc1ccc2nc3n(c(=O)c2c1)CCCCC3	772
CC(C)c1cccc(NC(=O)C2CCCN(c3cn[nH]c(=O)c3)C2)c1 (centres undefined)	692
Cc1ccccc1N1CCN(C(=O)C2=CCN(Cc3cccc(F)c3)CC2)CC1	712
O=C1NC2(CCN(C(=O)c3ccc(F)c(F)c3)CC2)Nc2c(Cl)cccc21	777
O=C1CCCc2nc(N3CCN(c4ccccn4)CC3)ncc21	566
COc1cccc([C@@]2(O)CCCC[C@H]2CN(C)C)c1	591
Cc1[nH]c(C(=O)N2CCC(CC(=O)NC(C)c3ccccc3)CC2)c(C)c1C(=O)OC(C)C (centres undefined)	832
Cc1cc2nn(CC(=O)Nc3ccc4c(c3)OCCO4)c(=O)n2c(Nc2ccccc2C)n1	908
CCN(CC)CCCNC(=O)c1cn(C)nc1S(=O)(=O)N1CCN(c2ccc(Cl)cc2)CC1	729
Cc1ccc(C2=NC3(CCN(C(=O)c4c[nH]c5ccccc45)CC3)ON2)cc1	769
O=C(c1ccc(F)c(F)c1)N1CCCC1c1nc(-c2ccccc2Cl)no1 (centres undefined)	1000
O=C(Nc1nccs1)C1CCN(C(=O)c2cccc(C(F)(F)F)c2)CC1	728
COc1ccc(Cl)cc1S(=O)(=O)N1CCC(n2cnnc2C(C)C)CC1	732
O=C(Cc1c[nH]c2ccccc12)N1CCN(C(=O)c2cc(-c3ccncc3)n[nH]2)CC1	578
CCC1Oc2ccc(S(=O)(=O)N3CCC(C(=O)NCc4ccc(OC)cc4)CC3)cc2NC1=O (centres undefined)	839
CC(C)Cc1ccc(S(=O)(=O)N2CCc3c(c(-c4nnc(-c5ccccc5)o4)nn3C)C2)cc1	1150
COc1ccc(C2CC(=O)N(c3ccc(C)c(Cl)c3)C(=O)C2)cc1OC	652
CN1CCCn2nc(C3CCN(C(=O)NCCc4ccccc4)CC3)cc2C1=O	657
COc1ccc(CNC(=O)CN2C(=O)NC(c3ccc(Cl)cc3)C3=C2COC3=O)cc1 (centres undefined)	780
O=C(c1ccccc1)N1C[C@@H]2C[C@H]1C[C@@H]2NS(=O)(=O)c1cccnc1	630
CC1CCc2nc3ncn(CC(=O)NCCC4=CCCCC4)c(=O)c3cc2C1 (centres undefined)	847
COc1ccc(S(=O)Cc2ccc(C(=O)NCCN(C)C)o2)cc1 (centres undefined)	530
